Results from patent US9358236B2, “Combinations of therapeutic agents for use in the treatment of neurodegenerative diseases” (Novartis AG, priority 2011, dated 2016).
Entries after “also recorded” stand apart in the source; their conditions may differ.

What was measured:
LC3-II/I conversion = assay: Autophagy induction (LC3-II/I conversion) by Western blot in R6/2 brain slices; format: cell-based; settings: R6/2 slices treated DIV14 to DIV21, analysed at DIV21
Experimental: (§1) Transgenic mice expressing human Huntingtin Exon-1Q200 (R6/2 mouse model described in Davies et al., 1997) were housed in a temperature-controlled room and maintained on a 12 hr light/dark cycle. Food and water were available ad libitum and experiments were carried out in accordance with the local authorization guidelines for the care and use of laboratory animals. Slice cultures were established according to the procedure described by Stoppini and colleagues (Stoppini et al., 1991 and Gogolla et al., 2006) and a particular cutting angle was utilized to produce brain slices with a preserved cortico-striatal pathway. Finally, slices were selected, placed on Millicel (Millipore, PICM03050) and cultured in 6-well dishes at 35° C. and 5% CO2 in the presence of 1 ml of culture medium.
Slices were treated with different mTOR inhibitors from DIV14 to DIV21. The culture medium was exchanged every second day, and drugs were added in the fresh culture medium. We used this protocol to evaluate the action of the following mTOR inhibitors: BEZ235 (50 and 300 nM in DMSO), RAD001 (250 nM in DMSO), CCG168 (300 nM in DMSO), RAD001+BEZ235 (250 10, 250 30 and 250 50 nM in DMSO) and RAD001'CCG168 (250 and 50 nM in DMSO).
Slices were washed in PBS and lysed in 1% Triton X-100/PBS containing Complete Mini (Roche, #04693124001) and PhosSTOP (Roche, #04906837001). Lysates were ultrasonicated and analysed by Western blotting for B-actin (Sigma, #A5441), pS6 Ser 240/244 (Cell Signalling, #2215), and LC3B (Cell Signalling, #2775). Immunoblots were developed with ECL detection reagent (Amersham Biosciences).

polyQ inclusions = assay: polyQ density by immunohistochemistry in R6/2 brain slices; format: cell-based, mouse; settings: R6/2 slices at DIV21, vs control R6/2
Experimental: as §1
(§2) Slices were treated with different mTOR inhibitors from DIV14 to DIV21. The culture medium was exchanged every second day, and drugs were added in the fresh culture medium. […]
(§3) High resolution images were acquired on an upright Zeiss LSM700 confocal microscope, using a Plan-Neofluar 40×/1.3 oil immersion objective. For the quantification of the PolyQ density and DARPP-32/NeuF signal intensity, at least three confocal 3D stacks/slice were acquired in striatum for each experiment (five slices per condition), and analyzed using Imaris 4.2 (Bitplane AG) and Image J softwares.
(§4) All data are expressed as mean±SEM. […]

p-S6 S240/244 = assay: mTORC1 activity (p-S6 S240/244) by Western blot in R6/2 brain slices; format: cell-based, mouse; settings: R6/2 slices treated DIV14 to DIV21, analysed at DIV21
neurofilament = assay: Striatal degeneration: neurofilament intensity in R6/2 brain slices; format: cell-based, mouse; settings: R6/2 slices at DIV21
Experimental: as §1, §2, §3, §4

DARPP-32 = assay: Striatal degeneration: DARPP-32 intensity in R6/2 brain slices; format: cell-based, mouse; settings: R6/2 slices at DIV21
Experimental: as §1, §2, §3, §4

PI3K/mTOR = settings: relatively higher concentrations; Serra et al., 2008; cited from earlier work
mTOR = mTOR (Homo sapiens, UniProt P42345); settings: low concentration; Serra et al., 2008; cited from earlier work
[1] = single low-concentration (250 nM)
[2] = single low-concentration (50 nM)

| SMILES | LC3-II/I conversion (autophagy induction) (LC3-II/I conversion; 250 nM) | polyQ density (polyQ inclusions; 250 nM) | p-S6 S240/244 level (p-S6 S240/244; 250 nM) | preservation of neurofilament level (neurofilament; [1]) | preservation of DARPP-32 level (DARPP-32; [1]) | LC3-II/I conversion (autophagy induction) (LC3-II/I conversion; 300 nM) | LC3-II/I conversion (autophagy induction) (LC3-II/I conversion; 50 nM) | concentration giving dual PI3K/mTOR inhibition (PI3K/mTOR) | concentration at which mTOR inhibition predominates (mTOR) | polyQ density (polyQ inclusions; 50 nM) | p-S6 S240/244 level (p-S6 S240/244; 50 nM) | preservation of neurofilament level (neurofilament; [2]) | preservation of DARPP-32 level (DARPP-32; [2]) |
| --- | --- | --- | --- | --- | --- | --- | --- | --- | --- | --- | --- | --- | --- |
| CO[C@H]1C[C@@H]2CC[C@@H](C)[C@@](O)(O2)C(=O)C(=O)N2CCCC[C@H]2C(=O)O[C@H]([C@H](C)C[C@@H]2CC[C@@H](OCCO)[C@H](OC)C2)CC(=O)[C@H](C)/C=C(\C)[C@@H](O)[C@@H](OC)C(=O)[C@H](C)C[C@H](C)/C=C/C=C/C=C/1C [RAD001, (1R,9S,12S,15R,16E,18R,19R,21R,23S,24E,26E,28E,30S,32S,35R)-1,18-dihydroxy-12-{(1R)-2-[(1S,3R,4R)-4-(2-hydroxyethoxy)-3-methoxycyclohexyl]-1-methylethyl}-19,30-dimethoxy-15,17,21,23,29,35-hexamethyl-11,36-dioxa-4-aza-tricyclo[30.3.1.0^4,9]hexatriaconta-16,24,26,28-tetraene-2,3,10,14,20-pentaone] | no effect | no effect | reduced | ineffective | ineffective | – | – | – | – | – | – | – | – |
| COc1ccc(-c2ccc3c(N4CCOC[C@@H]4C)nc(N4CCOC[C@@H]4C)nc3n2)cc1CO [CCG168, {5-[2,4-bis-((S)-3-methyl-morpholin-4-yl)-pyrido[2,3d]pyrimidin-7-yl]-2-methoxy-phenyl}-methanol] | – | – | – | – | – | induced autophagy; also recorded: reached similar efficacy | – | – | – | – | – | – | – |
| Cn1c(=O)n(-c2ccc(C(C)(C)C#N)cc2)c2c3cc(-c4cnc5ccccc5c4)ccc3ncc21 [BEZ235, 2-methyl-2-[4-(3-methyl-2-oxo-8-quinolin-3-yl-2,3-dihydro-imidazo[4,5-c]quinolin-1-yl)-phenyl]-propionitrile] | – | – | – | – | – | induced autophagy; also recorded: reached similar efficacy | no effect | approximately 500 nmol/L | less than 100 nmol/L | no effect | did not reduce | ineffective | ineffective |
